Assay results: paper PMC10716637 (RSC Advances, 2023)
Read-outs that look alike come from different tables or passages of the source.

Tests used:
[1] = test system: HepG2; test: MTT cytotoxicity assay, HepG2; type: cell-based, human; settings: for Selectivity index (SI): folds more toxic respecting HepG2 than normal VERO cells: CC50 VERO vs EC50 HepG2; for EC50: Homo sapiens, HepG2, read-out: EC50 HepG2
[2] = test system: MCF-7; test: MTT cytotoxicity assay, MCF-7; type: cell-based, human; settings: for Selectivity index (SI): folds toxic in MCF-7 than in normal VERO cells: CC50 VERO vs EC50 MCF-7; for EC50: Homo sapiens, MCF7, read-out: EC50 MCF-7
[3] = test system: HCT116; test: MTT cytotoxicity assay, HCT116; type: cell-based, human; settings: for Selectivity index (SI): folds lethalness in HCT-116 than in VERO cells: CC50 VERO vs EC50 HCT-116; for EC50: Homo sapiens, HCT-116, read-out: EC50 HCT116
[4] = test system: A549; test: MTT cytotoxicity assay, A549; type: cell-based, human; settings: for Selectivity index (SI): folds toxicity in A549 than in VERO cells: CC50 VERO vs EC50 A549; for EC50: Homo sapiens, A549, read-out: EC50 A549
[5] = molecular target: VEGFR-2 (Homo sapiens, UniProt P35968); test: In vitro VEGFR-2 kinase inhibitory assay; type: biochemical
[6] = molecular target: EGFR^T790M (Homo sapiens, UniProt P00533, T790M); test: In vitro EGFR^T790M kinase inhibitory assay; type: biochemical
[7] = molecular target: EGFR^WT (Homo sapiens, UniProt P00533); test: In vitro EGFR^WT kinase inhibitory assay; type: biochemical
[8] = Cytotoxicity against VERO normal cell lines; settings: African green monkey, VERO normal cells

Chain of EGFR^T790M (P00533 25-1210 T790M): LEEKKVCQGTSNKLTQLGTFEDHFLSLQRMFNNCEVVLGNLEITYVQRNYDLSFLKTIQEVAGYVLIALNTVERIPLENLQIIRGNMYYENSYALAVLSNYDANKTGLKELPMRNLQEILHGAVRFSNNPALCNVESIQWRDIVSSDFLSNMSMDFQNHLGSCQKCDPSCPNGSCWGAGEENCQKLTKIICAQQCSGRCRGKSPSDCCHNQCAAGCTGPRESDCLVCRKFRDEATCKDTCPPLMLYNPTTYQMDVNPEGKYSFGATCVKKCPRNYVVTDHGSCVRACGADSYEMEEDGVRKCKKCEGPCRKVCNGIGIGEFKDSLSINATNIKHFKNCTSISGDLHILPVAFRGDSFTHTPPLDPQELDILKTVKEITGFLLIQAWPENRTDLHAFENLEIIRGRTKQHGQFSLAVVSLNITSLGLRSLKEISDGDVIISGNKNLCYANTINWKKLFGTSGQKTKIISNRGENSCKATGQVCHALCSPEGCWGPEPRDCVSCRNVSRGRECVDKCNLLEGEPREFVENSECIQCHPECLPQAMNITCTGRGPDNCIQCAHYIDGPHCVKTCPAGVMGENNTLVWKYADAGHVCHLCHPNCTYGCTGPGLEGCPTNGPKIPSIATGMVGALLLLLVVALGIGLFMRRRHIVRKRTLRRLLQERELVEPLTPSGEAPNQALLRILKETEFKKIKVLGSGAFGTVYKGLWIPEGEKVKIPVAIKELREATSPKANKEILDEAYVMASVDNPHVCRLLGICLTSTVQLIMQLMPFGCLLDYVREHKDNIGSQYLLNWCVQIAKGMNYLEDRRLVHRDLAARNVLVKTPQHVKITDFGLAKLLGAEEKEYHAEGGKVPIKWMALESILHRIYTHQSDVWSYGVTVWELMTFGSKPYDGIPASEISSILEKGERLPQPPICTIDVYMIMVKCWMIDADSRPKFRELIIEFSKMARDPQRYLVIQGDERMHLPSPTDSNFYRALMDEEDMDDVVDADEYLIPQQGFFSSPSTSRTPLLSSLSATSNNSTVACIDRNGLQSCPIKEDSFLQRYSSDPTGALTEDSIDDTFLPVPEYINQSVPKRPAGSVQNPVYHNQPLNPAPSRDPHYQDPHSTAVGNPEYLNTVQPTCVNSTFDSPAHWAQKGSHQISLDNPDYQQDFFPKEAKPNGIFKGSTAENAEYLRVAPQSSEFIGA
Chain of VEGFR-2 (P35968 20-1356): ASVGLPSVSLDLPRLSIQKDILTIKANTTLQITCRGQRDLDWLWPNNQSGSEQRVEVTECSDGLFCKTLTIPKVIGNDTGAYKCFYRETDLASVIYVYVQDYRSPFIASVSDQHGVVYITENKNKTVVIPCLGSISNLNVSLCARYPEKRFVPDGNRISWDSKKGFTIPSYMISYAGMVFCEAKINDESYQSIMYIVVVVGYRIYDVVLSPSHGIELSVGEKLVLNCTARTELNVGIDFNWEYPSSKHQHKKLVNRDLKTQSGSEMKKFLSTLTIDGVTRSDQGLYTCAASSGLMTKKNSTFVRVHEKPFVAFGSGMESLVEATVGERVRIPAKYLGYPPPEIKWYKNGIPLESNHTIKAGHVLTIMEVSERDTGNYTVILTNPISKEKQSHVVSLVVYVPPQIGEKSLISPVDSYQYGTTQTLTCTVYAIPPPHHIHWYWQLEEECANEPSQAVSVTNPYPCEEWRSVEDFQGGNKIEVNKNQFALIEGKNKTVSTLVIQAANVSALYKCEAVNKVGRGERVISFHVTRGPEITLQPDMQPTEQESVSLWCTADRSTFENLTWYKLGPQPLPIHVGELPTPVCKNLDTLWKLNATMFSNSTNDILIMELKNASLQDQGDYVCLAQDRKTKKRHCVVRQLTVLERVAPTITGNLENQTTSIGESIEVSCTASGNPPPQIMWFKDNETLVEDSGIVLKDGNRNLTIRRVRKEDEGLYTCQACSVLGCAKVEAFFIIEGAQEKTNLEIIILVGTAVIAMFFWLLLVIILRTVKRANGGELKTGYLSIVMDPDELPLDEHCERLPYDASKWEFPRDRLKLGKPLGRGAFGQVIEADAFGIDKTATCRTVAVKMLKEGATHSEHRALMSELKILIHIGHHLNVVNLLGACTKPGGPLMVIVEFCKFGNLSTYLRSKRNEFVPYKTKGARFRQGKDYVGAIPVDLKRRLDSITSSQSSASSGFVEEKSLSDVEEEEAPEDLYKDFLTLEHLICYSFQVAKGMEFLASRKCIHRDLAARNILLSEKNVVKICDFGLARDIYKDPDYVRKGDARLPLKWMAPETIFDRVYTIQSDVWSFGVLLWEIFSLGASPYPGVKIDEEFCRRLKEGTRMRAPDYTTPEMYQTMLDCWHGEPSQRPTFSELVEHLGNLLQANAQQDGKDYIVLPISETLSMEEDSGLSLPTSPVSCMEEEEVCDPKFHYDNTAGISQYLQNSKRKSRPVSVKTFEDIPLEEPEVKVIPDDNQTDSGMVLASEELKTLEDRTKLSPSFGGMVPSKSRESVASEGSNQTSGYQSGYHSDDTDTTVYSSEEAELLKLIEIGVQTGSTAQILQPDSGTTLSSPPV
Chain of EGFR^WT (P00533 25-1210): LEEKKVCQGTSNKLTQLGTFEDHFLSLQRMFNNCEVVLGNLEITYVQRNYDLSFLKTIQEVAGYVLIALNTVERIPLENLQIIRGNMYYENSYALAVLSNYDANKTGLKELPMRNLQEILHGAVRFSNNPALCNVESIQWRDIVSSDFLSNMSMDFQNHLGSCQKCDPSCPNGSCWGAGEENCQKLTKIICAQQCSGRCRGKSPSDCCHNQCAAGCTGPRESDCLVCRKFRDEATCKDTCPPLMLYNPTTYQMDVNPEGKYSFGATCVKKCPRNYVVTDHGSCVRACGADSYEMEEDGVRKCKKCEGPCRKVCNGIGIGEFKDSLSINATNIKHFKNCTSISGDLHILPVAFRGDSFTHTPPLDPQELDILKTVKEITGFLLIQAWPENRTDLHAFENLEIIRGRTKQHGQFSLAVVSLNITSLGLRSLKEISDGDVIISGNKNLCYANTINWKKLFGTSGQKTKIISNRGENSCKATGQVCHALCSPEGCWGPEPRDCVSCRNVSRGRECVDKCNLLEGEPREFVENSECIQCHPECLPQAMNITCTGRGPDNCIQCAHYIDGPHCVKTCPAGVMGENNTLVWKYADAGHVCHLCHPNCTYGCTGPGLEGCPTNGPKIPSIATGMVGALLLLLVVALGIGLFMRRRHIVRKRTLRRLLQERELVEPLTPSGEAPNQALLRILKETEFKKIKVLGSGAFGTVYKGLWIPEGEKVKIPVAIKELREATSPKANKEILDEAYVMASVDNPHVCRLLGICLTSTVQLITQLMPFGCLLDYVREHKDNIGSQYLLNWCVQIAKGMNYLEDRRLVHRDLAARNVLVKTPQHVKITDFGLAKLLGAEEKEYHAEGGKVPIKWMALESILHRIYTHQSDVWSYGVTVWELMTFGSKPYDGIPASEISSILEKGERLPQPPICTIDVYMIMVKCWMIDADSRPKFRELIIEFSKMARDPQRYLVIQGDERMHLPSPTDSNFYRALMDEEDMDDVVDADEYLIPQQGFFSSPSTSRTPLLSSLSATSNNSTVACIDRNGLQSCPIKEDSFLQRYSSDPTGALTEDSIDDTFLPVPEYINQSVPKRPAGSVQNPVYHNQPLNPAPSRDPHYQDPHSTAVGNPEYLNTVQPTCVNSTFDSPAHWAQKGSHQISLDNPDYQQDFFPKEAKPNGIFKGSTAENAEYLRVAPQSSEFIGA

SMILES	Selectivity index (SI): folds more toxic respecting HepG2 than normal VERO cells [1]	EC50 [1]	Selectivity index (SI): folds toxic in MCF-7 than in normal VERO cells [2]	EC50 [2]	Selectivity index (SI): folds lethalness in HCT-116 than in VERO cells [3]	EC50 [3]	Selectivity index (SI): folds toxicity in A549 than in VERO cells [4]	EC50 [4]	IC50 [5]	IC50 [6]	IC50 [7]	CC50 [8]	IC50 ([6]; IC50 EGFR^T790M)
CCn1c(=O)n(CC(=O)Nc2ccc(C(=O)NN=Cc3ccc(OC)cc3)cc2)c(=O)c2cc(I)ccc21 [Compound 9c, 2-[1-Ethyl-6-iodo-2,4-dioxo-1,4-dihydroquinazolin-3(2H)-yl]-N-{4-[2-(4-methoxybenzylidene)-hydrazine-1-carbonyl]phenyl}acetamide]	11.00 folds	5 ± 0.5 µM	9.17 folds	6 ± 0.5 µM	10.64 folds	5.17 ± 0.5 µM	10.48 folds	5.25 ± 0.5 µM	0.85 ± 0.1 µM	0.22 ± 0.3 µM	0.15 ± 0.03 µM	55 ± 0.5 µM	
CCOC(=O)c1ccc(NC(=O)Cn2c(=O)c3cc(I)ccc3n(CC)c2=O)cc1 [Compound 5b, Ethyl 4-{2-[1-ethyl-6-iodo-2,4-dioxo-1,4-dihydroquinazolin-3(2H)-yl]acetamido}benzoate]		7.59 ± 0.7 µM		7.4 ± 0.7 µM		6.55 ± 0.7 µM		6.78 ± 0.7 µM	1.5 ± 0.1 µM	0.8 ± 0.5 µM			
CCn1c(=O)n(CC(=O)Nc2ccc(C(=O)NN=Cc3ccc(C)cc3)cc2)c(=O)c2cc(I)ccc21 [Compound 9b, 2-[1-Ethyl-6-iodo-2,4-dioxo-1,4-dihydroquinazolin-3(2H)-yl]-N-{4-[2-(4-methylbenzylidene)hydrazine-1-carbonyl]phenyl}acetamide]	7.94 folds	6.2 ± 0.7 µM	7.35 folds	6.7 ± 0.6 µM	8.31 folds	5.93 ± 0.6 µM	7.30 folds	6.75 ± 0.6 µM	0.9 ± 0.1 µM	0.5 ± 0.35 µM	0.35 ± 0.03 µM	49.2 ± 0.5 µM	
CCCn1c(=O)n(CC(=O)Nc2ccc(C(=O)NN)cc2)c(=O)c2cc(I)ccc21 [Compound 7b, N-[4-(hydrazinecarbonyl)phenyl]-2-(6-iodo-2,4-dioxo-1-propyl-1,4-dihydroquinazolin-3(2H)-yl)acetamide]		15.5 ± 1.5 µM		13.9 ± 1.5 µM		15.9 ± 1.5 µM		15.1 ± 1.5 µM	2.25 ± 0.25 µM	2.05 ± 0.5 µM			
CCn1c(=O)n(CC(=O)Nc2ccc(C(=O)OC)cc2)c(=O)c2cc(I)ccc21 [Compound 5a, Methyl 4-{2-[1-ethyl-6-iodo-2,4-dioxo-1,4-dihydroquinazolin-3(2H)-yl]acetamido}benzoate]		12.5 ± 0.7 µM		11.6 ± 0.7 µM		11.4 ± 0.7 µM		8.45 ± 0.7 µM	2 ± 0.25 µM	0.86 ± 0.5 µM			
CCCn1c(=O)n(CC(=O)Nc2ccc(C(=O)OC)cc2)c(=O)c2cc(I)ccc21 [Compound 5c, Methyl 4-{2-[6-iodo-2,4-dioxo-1-propyl-1,4-dihydroquinazolin-3(2H)-yl]acetamido}benzoate]		7.75 ± 0.7 µM		7.96 ± 0.7 µM		6.93 ± 0.7 µM		6.73 ± 0.7 µM	1.5 ± 0.5 µM	0.92 ± 0.5 µM			
CCCn1c(=O)n(CC(=O)Nc2ccc(C(=O)NC)cc2)c(=O)c2cc(I)ccc21 [Compound 6b, 4-{2-[6-Iodo-2,4-dioxo-1-propyl-1,4-dihydroquinazolin-3(2H)-yl]acetamido}-N-methylbenzamide]		8.5 ± 0.8 µM		8.15 ± 0.8 µM		8.35 ± 0.8 µM		6.7 ± 0.8 µM	1.65 ± 0.1 µM	0.6 ± 0.35 µM			
CCn1c(=O)n(CC(=O)Nc2ccc(-c3nnc(S)o3)cc2)c(=O)c2cc(I)ccc21 [Compound 8a, 2-[1-Ethyl-6-iodo-2,4-dioxo-1,4-dihydroquinazolin-3(2H)-yl]-N-[4-(5-mercapto-1,3,4-oxadiazol-2-yl)phenyl]acetamide]		7.55 ± 0.9 µM		8.25 ± 0.9 µM		7.25 ± 0.9 µM		10.1 ± 0.9 µM	1.5 ± 0.1 µM	1 ± 0.5 µM			
CCn1c(=O)n(CC(=O)Nc2ccc(C(=O)NN=Cc3ccccc3)cc2)c(=O)c2cc(I)ccc21 [Compound 9a, N-[4-(2-benzylidenehydrazine-1-carbonyl)phenyl]-2-[1-ethyl-6-iodo-2,4-dioxo-1,4-dihydroquinazolin-3(2H)-yl]acetamide]	6.69 folds	6.8 ± 0.7 µM	6.07 folds	7.5 ± 0.7 µM	7.23 folds	6.29 ± 0.7 µM	6.74 folds	6.75 ± 0.7 µM	1 ± 0.1 µM	0.75 ± 0.5 µM		45.5 ± 0.5 µM	1.5 µM
CNC(=O)c1cc(Oc2ccc(NC(=O)Nc3ccc(Cl)c(C(F)(F)F)c3)cc2)ccn1 [Sorafenib, reference compound]		4 ± 0.33 µM				5.58 ± 0.55 µM		4.04 ± 0.33 µM					
CCNC(=O)c1ccc(NC(=O)Cn2c(=O)c3cc(I)ccc3n(CC)c2=O)cc1 [Compound 6a, 4-{2-[1-Ethyl-6-iodo-2,4-dioxo-1,4-dihydroquinazolin-3(2H)-yl]acetamido}-N-ethylbenzamide]		7.8 ± 0.8 µM		8.5 ± 0.8 µM		7.6 ± 0.8 µM		7.95 ± 0.8 µM	1.4 ± 0.2 µM	0.9 ± 0.5 µM			
CCn1c(=O)n(CC(=O)Nc2ccc(C(=O)NN)cc2)c(=O)c2cc(I)ccc21 [Compound 7a, 2-(1-Ethyl-6-iodo-2,4-dioxo-1,4-dihydroquinazolin-3(2H)-yl)-N-(4-(hydrazinecarbonyl)phenyl)-acetamide]		16 ± 1.5 µM		15.5 ± 1.5 µM		13.2 ± 1.5 µM		13.7 ± 1.5 µM	2.5 ± 0.25 µM	1.5 ± 0.5 µM			
CCCn1c(=O)n(CC(=O)Nc2ccc(C(=O)OCC)cc2)c(=O)c2cc(I)ccc21 [Compound 5d, Ethyl 4-{2-[6-iodo-2,4-dioxo-1-propyl-1,4-dihydroquinazolin-3(2H)-yl]acetamido}benzoate]	6.21 folds	7.5 ± 0.7 µM	6.32 folds	7.37 ± 0.7 µM	7.15 folds	6.52 ± 0.7 µM	6.98 folds	6.68 ± 0.7 µM	1.25 ± 0.1 µM	0.4 ± 0.35 µM	0.32 ± 0.03 µM	46.6 ± 0.5 µM	
CCCn1c(=O)n(CC(=O)Nc2ccc(-c3nnc(S)o3)cc2)c(=O)c2cc(I)ccc21 [Compound 8b, 2-[6-Iodo-2,4-dioxo-1-propyl-1,4-dihydroquinazolin-3(2H)-yl]-N-[4-(5-mercapto-1,3,4-oxadiazol-2-yl)phenyl]acetamide]	6.77 folds	7.5 ± 0.7 µM	6.81 folds	7.45 ± 0.7 µM	7.52 folds	6.75 ± 0.7 µM	7.57 folds	6.7 ± 0.5 µM	1.38 ± 0.1 µM	0.45 ± 0.35 µM	0.38 ± 0.03 µM	50.75 ± 0.5 µM	
C#Cc1cccc(Nc2ncnc3cc(OCCOC)c(OCCOC)cc23)c1 [Erlotinib, reference compound]		7.73 ± 0.67 µM		13.9 ± 1.3 µM		8.2 ± 0.34 µM		5.49 ± 0.45 µM					
